From US12110284B2, “Fasoracetam crystalline forms” (The Children's Hospital of Philadelphia, priority 2018, dated 2024)
Read-outs that look alike come from different tables or passages of the source.

What was measured:
[1] = Slurrying experiment of both hydrates seeded with the opposite hydrate, XRPD analysis; type: physicochemical; conditions: water and methanol slurries seeded with the opposite hydrate, 1 week
Experimental: Using Burger's Heat of Fusion rule for both hydrated forms (Table 6), they should be monotropically related. Because both hydrates were obtained from different solvents (water and methanol for Forms I and II, respectively), a slurrying experiment where both vials were seeded with the opposite hydrate was performed and left under these conditions for 1 week.

[2] = DSC enthalpy of fusion of fasoracetam forms; type: physicochemical
Experimental: DSC measurements were performed on a DSC 821 METTLER TOLEDO under continuous nitrogen flow. Perforated aluminium crucibles were used for analysis. Onsets were determined by manually constructing a tangent to the peak and a prolongation of the baseline. Total enthalpies were calculated by manual peak integration using a linear interpolation between the initial and final temperatures of integration. To obtain the normalized enthalpy, the total enthalpy was divided by the total sample mass. Ramp rates were typically done at 5° C./minute Using Burger's Heat of Fusion rule for both hydrated forms (Table 6), they should be monotropically related. Because both hydrates were obtained from different solvents (water and methanol for Forms I and II, respectively), a slurrying experiment where both vials were seeded with the opposite hydrate was performed and left under these conditions for 1 week.

[3] = type: physicochemical; conditions: for first onset of weight loss / weight loss continues up to / water loss (initial weight loss): TGA; for first onset of weight loss / weight loss continues up to: nitrogen flow; for water loss (initial weight loss): equivalents of water
Experimental: TGA measurements were carried out on a METTLER TOLEDO TGA/SDTA 851e. Samples were placed in open aluminum oxide crucible. All experiments were performed under nitrogen flow.
A thermal analysis of all forms was performed in order to characterize the fasoracetam forms and to identify the stability of different forms. TGA measurements (FIG. 21) clearly mark the difference between the hydrated and anhydrated form. […] The weight loss continues up to 185° C. When the temperature is increased further, degradation occurs, starting around 260° C. The initial loss corresponds to 1.1 equivalent of water, as expected for a 1:1 stoichiometric hydrate. The slight deviation from the ideal stoichiometric ratio can be attributed to the crystallization conditions (the bulk material was obtained from an aqueous solution and the water remaining on the crystal surface or trapped between crystals is likely to cause the deviation observed). […] Analogous to Form I, degradation occurs which starts around 268° C. The observed water loss here is 0.9 equivalent, which is expected for a stoichiometric hydrate.

[4] = test system: mGluRs; conditions: in vitro; cited from earlier work
[5] = cited from earlier work
[6] = Storage of the anhydrate at ambient conditions, conversion tracked daily via XRPD; type: physicochemical; conditions: 1-week period
[7] = Hygroscopicity of the solid form; type: physicochemical
Experimental: In further embodiments of the disclosure, R-fasoracetam anhydrate is provided. […] This lack of water of crystallization is a characterizing feature of the anhydrate of R-fasoracetam with respect to Form I or Form II. FIG. 13 is an XRPD pattern of the anhydrate and any one or more of the peaks in that XRPD pattern may be used to characterize the anhydrate. Thus, one or more peaks at about 8.9°2θ, about 13.1°2θ, about 15.2°2θ, about 17.8°2θ, about 18.7°2θ, about 20.3°2θ, and about 22.7°2⊖ may be used to characterize the anhydrate form of R-fasoracetam. The anhydrate has an onset melting temperature at about 94° C. Thus, in another embodiment, an onset melting point of about 94° C. together with one or more peaks at about 8.9°2θ, about 13.1°2θ, about 15.2°2θ, about 17.8°2θ, about 18.7°2θ, about 20.3°2θ, and about 22.7°2⊖ may be used to characterize R-fasoracetam anhydrate. R-fasoracetam anhydrate may be further characterized by a diffraction pattern substantially the same as that of FIG. 13. A DSC thermogram of R-fasoracetam anhydrate appears in FIG. 25. The ramp rate was at 10° C. per minute. The R-fasoracetam anhydrate being hygroscopic, the sample in FIG. 25 was obtained by keeping R-fasoracetam monohydrate Form I under vacuum for a prolonged period at a temperature of 65° C.

Row | SMILES | solid form stability in slurry [1] | Enthalpy of Fusion (ΔHfus, J/g) ([2]; listed as Fasoracetam hydrate II) [J/g] | degradation starts [3] | first onset of weight loss [3] | weight loss continues up to [3] [°C] | water loss (initial weight loss) [3] [equivalent] | activity against mGluRs [4] | treatment of further disorders ([5]; subjects having ADHD and 22q11.2 Deletion Syndrome, anxiety, conduct disorder, Tourette's syndrome) | treatment of ADHD ([5]; subjects having a genetic alteration in an mGluR network gene, clinical trial) | Enthalpy of Fusion (ΔHfus, J/g) ([2]; listed as Fasoracetam hydrate I) [J/g] | conversion of solid form on storage [6] | hygroscopicity [7] | Enthalpy of Fusion (ΔHfus, J/g) [2] [J/g]
1 | O=C1CC[C@H](C(=O)N2CCCCC2)N1 [Form II, R-fasoracetam monohydrate Form II] | complete solution mediated polymorphic transition from Form II to Form I | -79.0 | around 268 °C | 41 °C | 183 | 0.9 |  |  |  |  |  |  | 
2 | O=C1CC[C@H](C(=O)N2CCCCC2)N1 [fasoracetam, R-fasoracetam] |  |  |  |  |  |  | nonselective activator against all classes of mGluRs | successful | successfully treated |  |  |  | 
3 | O=C1CC[C@H](C(=O)N2CCCCC2)N1 [Form I, R-fasoracetam monohydrate Form I, reference compound] |  |  | around 260 °C | 41 °C | 185 | 1.1 |  |  |  | -120.9 |  |  | 
4 | O=C1CC[C@H](C(=O)N2CCCCC2)N1 [anhydrate, R-fasoracetam anhydrate] |  |  | around 260 °C | no particular weight loss up until degradation |  |  |  |  |  |  | conversion to the stable hydrate occurs at ambient conditions over a 1-week period | hygroscopic | -76.7
